From patent US6635635B2, “Benzothiadiazine compounds” (Les Laboratoires Servier, priority 2000, dated 2003)

system: not given; experiment: not given; details: not given

SMILES	melting point [°C]
O=C(Oc1ccc2c(c1)S(=O)(=O)NC1CCCN21)C1CCC1 (stereo not drawn) [Example 17, 5,5-Dioxo-2,3,3a,4-tetrahydro-1H-pyrrolo[2,1-c][1,2,4]-benzothiadiazin-7-yl cyclobutanecarboxylate]	166 to 170
O=C(Oc1ccc2c(c1)S(=O)(=O)NC1CCCN21)C1CCCC1 (stereo not drawn) [Example 16, 5,5-Dioxo-2,3,3a,4-tetrahydro-1H-pyrrolo[2,1-c][1,2,4]-benzothiadiazin-7-yl cyclopentanecarboxylate]	148 to 150
N#Cc1ccc(C(=O)Oc2ccc3c(c2)S(=O)(=O)NC2CCCN32)cc1 (stereo not drawn) [Example 27, 5,5-Dioxo-2,3,3a,4-tetrahydro-1H-pyrrolo[2,1-c][1,2,4]-benzothiadiazin-7-yl 4-cyanobenzoate]	260 to 264
O=C(C=Cc1ccccc1)Oc1ccc2c(c1)S(=O)(=O)NC1CCCN21 (stereo not drawn) [Example 23, 5,5-Dioxo-2,3,3a,4-tetrahydro-1H-pyrrolo[2,1-c][1,2,4]-benzothiadiazin-7-yl 3-phenyl-2-propenoate]	193 to 198
O=C(Oc1ccc2c(c1)S(=O)(=O)NC1CCCN21)C1CC1 (stereo not drawn) [Example 18, 5,5-Dioxo-2,3,3a,4-tetrahydro-1H-pyrrolo[2,1-c][1,2,4]-benzothiadiazin-7-yl cyclopropanecarboxylate]	169 to 171
COc1ccc(C(=O)Oc2ccc3c(c2)S(=O)(=O)NC2CCCN32)cc1 (stereo not drawn) [Example 24, 5,5-Dioxo-2,3,3a,4-tetrahydro-1H-pyrrolo[2,1-c][1,2,4]-benzothiadiazin-7-yl 4-methoxybenzoate]	216 to 221
O=C(Oc1ccc2c(c1)S(=O)(=O)NC1CCCN21)C1CCCCC1 (stereo not drawn) [Example 14, 5,5-Dioxo-2,3,3a,4-tetrahydro-1H-pyrrolo[2,1-c][1,2,4]-benzothiadiazin-7-yl cyclohexanecarboxylate]	157
O=C(Oc1ccc2c(c1)S(=O)(=O)NC1CCCN21)c1ccc(-c2ccccc2)cc1 (stereo not drawn) [Example 21, 5,5-Dioxo-2,3,3a,4-tetrahydro-1H-pyrrolo[2,1-c][1,2,4]-benzothiadiazin-7-yl [1,1′-biphenyl]-4-carboxylate]	249 to 253
O=C(Oc1ccc2c(c1)S(=O)(=O)NC1CCCN21)c1ccc2ccccc2c1 (stereo not drawn) [Example 20, 5,5-Dioxo-2,3,3a,4-tetrahydro-1H-pyrrolo[2,1-c][1,2,4]-benzothiadiazin-7-yl 2-naphthalenecarboxylate]	207 to 210
Cc1ccc(C(=O)Oc2ccc3c(c2)S(=O)(=O)NC2CCCN32)cc1 (stereo not drawn) [Ex. 28, 5,5-Dioxo-2,3,3a,4-tetrahydro-1H-pyrrolo[2,1-c][1,2,4]-benzothiadiazin-7-yl 4-methylbenzoate]	198 to 200
N#Cc1cccc(C(=O)Oc2ccc3c(c2)S(=O)(=O)NC2CCCN32)c1 (stereo not drawn) [Example 31, 5,5-Dioxo-2,3,3a,4-tetrahydro-1H-pyrrolo[2,1-c][1,2,4]-benzothiadiazin-7-yl 3-cyanobenzoate]	203 to 206

The next lines start with the values.

melting point [°C]	SMILES
243 to 247	O=C(Oc1ccc2c(c1)S(=O)(=O)NC1CCCN21)c1cccc(Cl)c1 (stereo not drawn) [Example 26, 5,5-Dioxo-2,3,3a,4-tetrahydro-1H-pyrrolo[2,1-c][1,2,4]-benzothiadiazin-7-yl 3-chlorobenzoate]
212 to 214	O=C(Oc1ccc2c(c1)S(=O)(=O)NC1CCCN21)c1cccs1 (stereo not drawn) [Ex. 34, 5,5-Dioxo-2,3,3a,4-tetrahydro-1H-pyrrolo[2,1-c][1,2,4]-benzothiadiazin-7-yl 2-thiophenecarboxylate]
169 to 171	O=C(Cc1ccccc1)Oc1ccc2c(c1)S(=O)(=O)NC1CCCN21 (stereo not drawn)
208 to 212	O=C(Oc1ccc2c(c1)S(=O)(=O)NC1CCCN21)c1ccsc1 (stereo not drawn) [Example 33, 5,5-Dioxo-2,3,3a,4-tetrahydro-1H-pyrrolo[2,1-c][1,2,4]-benzothiadiazin-7-yl 3-thiophenecarboxylate]
218 to 221	Cc1ccccc1C(=O)Oc1ccc2c(c1)S(=O)(=O)NC1CCCN21 (stereo not drawn) [Example 30, 5,5-Dioxo-2,3,3a,4-tetrahydro-1H-pyrrolo[2,1-c][1,2,4]-benzothiadiazin-7-yl 2-methylbenzoate]
227 to 230	O=C(Oc1ccc2c(c1)S(=O)(=O)NC1CCCN21)c1cccnc1 (stereo not drawn) [Ex. 37, 5,5-Dioxo-2,3,3a,4-tetrahydro-1H-pyrrolo[2,1-c][1,2,4]-benzothiadiazin-7-yl nicotinate]
227 to 230	Cl.O=C(Oc1ccc2c(c1)S(=O)(=O)NC1CCCN21)c1ccccn1 (stereo not drawn)
205 to 208	O=C(Oc1ccc2c(c1)S(=O)(=O)NC1CCCN21)c1ccco1 (stereo not drawn) [Ex. 36, 5,5-Dioxo-2,3,3a,4-tetrahydro-1H-pyrrolo[2,1-c][1,2,4]-benzothiadiazin-7-yl 2-furancarboxylate]
185 to 187	O=C(Oc1ccc2c(c1)S(=O)(=O)NC1CCCN21)c1ccoc1 (stereo not drawn) [Example 35, 5,5-Dioxo-2,3,3a,4-tetrahydro-1H-pyrrolo[2,1-c][1,2,4]-benzothiadiazin-7-yl 3-furancarboxylate]
214 to 218	Cc1cccc(C(=O)Oc2ccc3c(c2)S(=O)(=O)NC2CCCN32)c1 (stereo not drawn) [Example 29, 5,5-Dioxo-2,3,3a,4-tetrahydro-1H-pyrrolo[2,1-c][1,2,4]-benzothiadiazin-7-yl 3-methylbenzoate]
243 to 247	Cl.O=C(Oc1ccc2c(c1)S(=O)(=O)NC1CCCN21)c1ccncc1 (stereo not drawn)

system: AMPA receptor; experiment: Study of excitatory fluxes induced by AMPA in Xenopus oocytes (2-electrode voltage-clamp); format: cell-based; details: Xenopus oocytes injected with poly(A+) mRNA from rat cerebral cortex; AMPA 10 μM; 20-24° C.
Protocol: Study of Excitatory Fluxes Induced by AMPA in Xenopus oocytes
mRNAs are prepared from cerebral cortex of male Wistar rat by the guanidium thiocyanate/phenol/chloroform method. The poly (A^+) mRNAs are isolated by chromatography on oligo-dT cellulose and injected with 50 ng per oocyte. The oocytes are left for 2 to 3 days' incubation at 18° C. to enable expression of the receptors and are then stored at 8-10° C.
Electrophysiological recording is carried out in a Plexiglass® chamber at 20-24° C. in an OR2 medium (J. Exp. Zool., 1973, 184, 321-334) by the 2-electrode “voltage-clamp” method, with a 3rd electrode being placed in the bath to serve as reference.
All the compounds are administered via the incubation medium and the electric current is measured at the end of the period of administration. AMPA is used in a concentration of 10 μM. For each compound studied, there is determined the concentration that doubles (EC2X) or quintuples (EC5X) the intensity of the flux induced by AMPA alone (5 to 50 nA).

SMILES	EC2X (concentration that doubles the intensity of the flux induced by AMPA alone) [µM]
O=C(Oc1ccc2c(c1)S(=O)(=O)NC1CCCN21)c1cccs1 (stereo not drawn) [Ex. 34, 5,5-Dioxo-2,3,3a,4-tetrahydro-1H-pyrrolo[2,1-c][1,2,4]-benzothiadiazin-7-yl 2-thiophenecarboxylate]	1.3
CC(=O)Oc1ccc2c(c1)S(=O)(=O)NC1CCCN21 (single isomer, unassigned) [Ex. 9, 5,5-Dioxo-2,3,3a,4-tetrahydro-1H-pyrrolo[2,1-c][1,2,4]benzothiadiazin-7-yl acetate, β isomer levo]	296
CC(C)(C)C(=O)Oc1ccc2c(c1)S(=O)(=O)NC1CCCN21 (stereo not drawn) [Ex. 10, 5,5-Dioxo-2,3,3a,4-tetrahydro-1H-pyrrolo[2,1-c][1,2,4]benzothiadiazin-7-yl pivalate]	14
CC(=O)Oc1ccc2c(c1)S(=O)(=O)NC1CCCN21 (single isomer, unassigned) [Ex. 8, 5,5-Dioxo-2,3,3a,4-tetrahydro-1H-pyrrolo[2,1-c][1,2,4]benzothiadiazin-7-yl acetate, α isomer dextro]	20
CC(=O)Oc1ccc2c(c1)S(=O)(=O)NC1CCCN21 (stereo not drawn) [Ex. 7, 5,5-Dioxo-2,3,3a,4-tetrahydro-1H-pyrrolo[2,1c][1,2,4]benzothiadiazin-7-yl acetate]	34
O=C(Oc1ccc2c(c1)S(=O)(=O)NC1CCCN21)c1cccnc1 (stereo not drawn) [Ex. 37, 5,5-Dioxo-2,3,3a,4-tetrahydro-1H-pyrrolo[2,1-c][1,2,4]-benzothiadiazin-7-yl nicotinate]	4.0
O=C(Oc1ccc2c(c1)S(=O)(=O)NC1CCCN21)c1ccco1 (stereo not drawn) [Ex. 36, 5,5-Dioxo-2,3,3a,4-tetrahydro-1H-pyrrolo[2,1-c][1,2,4]-benzothiadiazin-7-yl 2-furancarboxylate]	2.0
O=S1(=O)NC2CCCN2c2cc(F)c(O)cc21 (stereo not drawn) [Ex. 4, 5,5-Dioxo-8-fluoro-2,3,3a,4-tetrahydro-1H-pyrrolo[2,1-c][1,2,4]-benzothiadiazin-7-ol]	35
O=S1(=O)NC2CCCN2c2ccc(O)cc21 (stereo not drawn) [Ex. 1, 5,5-Dioxo-2,3,3a,4-tetrahydro-1H-pyrrolo[2,1-c][1,2,4]benzothiadiazin-7-ol]	12
Cc1ccc(C(=O)Oc2ccc3c(c2)S(=O)(=O)NC2CCCN32)cc1 (stereo not drawn) [Ex. 28, 5,5-Dioxo-2,3,3a,4-tetrahydro-1H-pyrrolo[2,1-c][1,2,4]-benzothiadiazin-7-yl 4-methylbenzoate]	3.6
O=C(Oc1ccc2c(c1)S(=O)(=O)NC1CCCN21)c1ccccc1 (stereo not drawn) [Ex. 11, 5,5-Dioxo-2,3,3a,4-tetrahydro-1H-pyrrolo[2,1-c][1,2,4]benzothiadiazin-7-yl benzoate]	5
